The numbers were not newly measured in patent US20240024348A1, “METHODS AND COMPOSITIONS FOR THE TREATMENT OF GLAUCOMA AND RELATED CONDITIONS” (Ophthalmic Therapeutic Innovation, priority 2022, published 2024), which cites them from elsewhere.

One series has as its system patient with NTG. As to conditions: cited from earlier work.
For series [1], the system named is human TM cell. As to conditions: high concentration (10 ug/mL); cited from earlier work.
Series [2] has as its system patients or human subjects. Particulars: cited from earlier work; for conjunctiva hyperemia: eye drops, clinical trials.
Series [3] has as its system ischemia-reperfusion rodent model. Particulars: cited from earlier work.
Series [4] relates to patients with refractory glaucoma. Particulars: two individual patients with refractory glaucoma; cited from earlier work.
Another series concerns patients with POAG/OH. Particulars: cited from earlier work; for IOP reduction: Ph2, 1.5% BID.
Series [5] relates to Dutch-belted pigmented and normotensive rabbit eyes. As to conditions: single dose 0.6% eye drop, cited from earlier work.
For series [6], the system named is POAG/OH patients with Latanoprost poor responders. As to conditions: cited from earlier work.
Another series has as its system patients. As to conditions: 3% QD and 6% QD with 0.005% QD Lantanoprost; cited from earlier work.
A further series concerns young and aged C57 mice. As to conditions: 7 days, cited from earlier work.
The subject of another series is NAION mice model. Particulars: cited from earlier work.
Series [7] deals with human TM cell. Particulars: human TM cell culture; cited from earlier work.
The subject of a further series is aged mice. Particulars: 6% treatment, vs placebo treated eyes; cited from earlier work.
For a further series, the system named is light damaged rat models. Particulars: cited from earlier work.
In a further series the test system is rat. As to conditions: cited from earlier work.
For series [8] the following is noted: human donor eyes; cited from earlier work.

Entries after “also recorded” stand apart in the source; their conditions may differ. Where two headings read alike, the source gives them in different places.

As for `O=C(CCC/C=C\C[C@@H]1[C@@H](CC[C@@H](O)CCc2ccccc2)[C@H](O)C[C@@H]1O)OCCCCO[N+](=O)[O-]` [Vyzulta, Latanoprost Bunod], the IOP improvement entry in the series with patient with NTG (during the first 12-week of 12-month study, Japanese population) is “less than 1.0 mmHg”; with patient with NTG (within the first 12-week of 12-month study), roughly 0.6 mmmHg.
As for `CC(C)OC(=O)CCC/C=C\C[C@@H]1[C@@H](CC[C@@H](O)CCc2ccccc2)[C@H](O)C[C@@H]1O` [Latanoprost], in the series with human TM cell [1], the MMP-9 expression entry is reported as “upregulates MMP-9 expression”.
Regarding `CCNC(=O)CCC/C=C\C[C@@H]1[C@@H](/C=C/[C@@H](O)CCc2ccccc2)[C@H](O)C[C@@H]1O` [Bimatoprost], the MMP-9 expression entry in the series on human TM cell [1] is recorded as “upregulates MMP-9 expression”.
Turning to `Cc1ccc(C(=O)OCc2ccc([C@@H](CN)C(=O)Nc3ccc4cnccc4c3)cc2)c(C)c1` [Rhopressa, reference compound], the conjunctiva hyperemia in series [2] is recorded as 50%.
For `Brc1c(NC2=NCCN2)ccc2nccnc12` [Brimonidine, reference compound], the results for the “protection of RGC and outer layer photoreceptors” value in [3] and in series [3] (listed as brimonidine) were “lacks effects toward the outer layer photoreceptor cells” and “did not protect photoreceptor loss”, respectively.
`CCCCCCCC(=O)CC[C@@H]1[C@@H](C/C=C\CCCC(=O)OC(C)C)[C@@H](O)C[C@H]1O` [Rescula]: in [4], the IOP profile result is “slow mode and accumulative improvement over time”.
With Trabodenoson, the “IOP dose response curve (IOP reduction from baseline IOP)” value with patients with POAG/OH (14-Day Phase 2 dose escalation, 0.15%, 0.3%, 0.6%, 1.5% BID) is 0.6% BID peaked at the top. Moreover, the IOP reduction with patients with POAG/OH (day 14, baseline IOP>21 mmHg) is 6.5 mmHg; with patients with POAG/OH (day 14, baseline IOP>25 mmHg) it was greater than 7 mmHg. Also, the “IOP improvement, day 28 vs Day 14” value with patients with POAG/OH (Phase 2, 1.5% BID eye drops, baseline IOP>21 mmHg, in 2 weeks) is on record as 0.9 mmHg. Further, the “IOP reduction POAG vs OH” value in the series with patients with POAG/OH (Phase 2, 1.5% BID, early-stage population) is listed as “higher IOP reduction in patients with POAG than that with OH”. For the same molecule, the “IOP reduction from the diurnal IOP at day -1” value in the series on patients with POAG/OH (Phase 2 dose escalation, Day 14) is on record as 1.5% BID is more effective than 0.15% BID, 0.3% BID, 0.6% BID at Day 14. In addition, the “Phase 3 IOP endpoint” value with patients with POAG/OH (Phase 3 clinical trials, 3 months) was “failed to meet the IOP endpoint at 3 months”. Moreover, the IOP time course entry is “incremental increase of the IOP reduction; also recorded: continuous IOP improvement over a course of 3 months with clinical significance compared to placebo” with patients with POAG/OH (Phase 3 monotherapy, 6% QD, 3 months, vs placebo); “robust and continuous IOP improvement over the course of 12 weeks; also recorded: robust and incremental IOP improvement over a course of 12-week treatment time” in series [6] (1.5% BID 8 weeks then 3.0% QD 4 weeks, add-on to Latanoprost, 12 weeks). The “maximal IOP reduction” value in the series with patients with POAG/OH (eye drops 1.5% BID, day 28 (4 weeks), early stage POAG/OH) is on record as 6-7 mmHg. Besides, in the series on patients with POAG/OH (eye drops, early stage POAG/OH with very mild damage), the “time before reaching a steady state” value was “more than 3 months”. Moreover, in [2] (819 subjects, 2 weeks to 3 months, 0.15% BID to 6% QD, up to 18% single dose), the “systemic clinical safety and ocular tolerability” value was “excellent systemic clinical safety and ocular tolerability”. In series [2], the conjunctiva hyperemia is reported as 2.56%. The “IOP reduction from the baseline” value in series [5] (at 2 hours) is listed as 25%-27%. Moreover, the “time of IOP return to the baseline” value in series [5] was 6 h. Besides, in [6] (Lantanoprost poor responders), the “effectiveness POAG vs OH” value is on record as “more effective in patients with POAG than with OH”. In addition, in the series on patients, the “IOP efficacy of combination vs Lantanoprost alone” value is “less effective than 0.005% QD Lantanoprost alone”. In the series on young and aged C57 mice (3% QD, young C57 mice), the “IOP reduction over time” value is given as “sustained over 7 days”. In the series on young and aged C57 mice (6% QD, aged C57 mice), the “IOP lowering effect over time” value was “slowly diminished at day 7”. In addition, the “axon loss and myelination damage of optic nerve (EM)” value in the series on NAION mice model (6% eye drops BID, vs placebo control) was “significant reduction of the axon loss and myelination damage”. The RGC neural protection entry in the series with NAION mice model (NAION mice model) is “potent neural protectant for RGC cell rescue”. In addition, the MMP-14 expression result in the series with human TM cell [7] is “upregulating MMP-14 expression”. In addition, the “collagen IV and fibronectin” value in the series on human TM cell [7] was “downregulation of collagen IV and fibronectin”. Also, the “TM morphology / ECM” value in the series with aged mice was “TM mesh pores opening up and ECM remodeling with enlarged ECM space”. The “protection of RGC and outer layer photoreceptors” value in series [3] was “demonstrated neural protection for both RGC inner layer of the neurons and the outer layer of neurons (photoreceptors); also recorded: more potent in rescuing and protecting the RGC and outer layer photoreceptors from apoptosis”. In addition, the photoreceptor cell loss entry in the series on light damaged rat models was “rescuing photoreceptor cell loss”. In the series on rat, the heart rate entry is “reduces the heart rate in rat”.

B1: MMP-2: matrix metalloproteinase (protein, UniProt P08253 110-660, looked up)
72 kDa type IV collagenase: YNFFPRKPKWDKNQITYRIIGYTPDLDPETVDDAFARAFQVWSDVTPLRFSRIHDGEADIMINFGRWEHGDGYPFDGKDGLLAHAFAPGTGVGGDSHFDDDELWTLGEGQVVRVKYGNADGEYCKFPFLFNGKEYNSCTDTGRSDGFLWCSTTYNFEKDGKYGFCPHEALFTMGGNAEGQPCKFPFRFQGTSYDSCTTEGRTDGYRWCGTTEDYDRDKKYGFCPETAMSTVGGNSEGAPCVFPFTFLGNKYESCTSAGRSDGKMWCATTANYDDDRKWGFCPDQGYSLFLVAAHEFGHAMGLEHSQDPGALMAPIYTYTKNFRLSQDDIKGIQELYGASPDIDLGTGPTPTLGPVTPEICKQDIVFDGIAQIRGEIFFFKDRFIWRTVTPRDKPMGPLLVATFWPELPEKIDAVYEAPQEEKAVFFAGNEYWIYSASTLERGYPKPLTSLGLPPDVQRVDAAFNWSKNKKTYIFAGDKFWRYNEVKKKMDPGFPKLIADAWNAIPDNLDAVVDLQGGGHSYFFKGAYYLKLENQSLKSVKFGSIKSDWLGC
B1: the “hydraulic conductance of Bruch's membrane” value in series [8] is given as “increases hydraulic conductance”.
